For 17 compounds, GI50 and TGI results are on record in PubChem BioAssay (NCI).

Molecules are shown by their SMILES. Where “and” joins values, the source holds several entries; their conditions need not be identical. Identical values can stand only once.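 Values below derive from 48-hour exposures of cells grown in 96-well plates, with endpoints linearly interpolated between the two concentrations bracketing the appropriate inhibition level. Abbreviation: GI50, concentration required for 50% inhibition of growth. At the TGI there is no net growth.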

In the first assay the test system is UACC-62 melanoma. Kind of assay: DTP human tumour cell line panel, 48 h.
Consider `C/C(=N\O)c1ccc(Nc2cc(-n3nnc4ccccc43)nc3ccccc23)cc1`, for which the GI50 – broadly, the concentration at which growth is held to half of that of the control – was 6.9 µM and the TGI (as a rule, the concentration giving total growth inhibition) was determined as 19 µM.
For `Clc1ccc(COC(Cn2ccnc2)c2ccc(Cl)cc2Cl)cc1` (stereo not given), the GI50 was 2.16 µM; the TGI was 11.9 µM and 25.2 µM and 22.3 µM.
For `CC[C@H](C)[C@H](NC(=O)c1cnccn1)C(=O)N(C)[C@H](C[C@@H](OC(C)=O)c1nc(C(=O)N[C@@H](Cc2ccccc2)C[C@H](C)C(=O)OC)cs1)C(C)C`, the GI50 is 0.105 µM and the TGI is over 33.3 µM.
The compound `Nc1c(C(=O)Nc2ccc([As](=O)(O)O)cc2)cnc2nnnn12` yielded a TGI of over 100 µM.
On to `CC(C)n1c(/C=C/[C@@H](O)C[C@@H](O)CC(=O)O)c(-c2ccc(F)cc2)c2ccccc21`, for which the GI50 was 0.526 µM and 0.537 µM; the TGI is 34.4 µM and 25 µM.
`N#CC(C#N)SCc1ccccc1` gave a TGI of over 93.1 µM.
`CCOc1ccc(NCC2CC/C(=C\C=C\c3ccccc3)C2=O)cc1` (stereo not given) came in with a TGI of 54.2 µM.
In the case of `Cc1cc(N(CCNc2ccnc3cc(Cl)ccc23)Cc2ccc3c(c2)OCO3)nc(N2CCN(C)CC2)n1`, the GI50 is 1.9 µM and the TGI is 3.51 µM.

For another assay, the system named is OVCAR-3 ovarian. The assay is described as follows: DTP human tumour cell line panel, 48 h.
For the compound `Cc1ccc(C(=O)Cc2nc3c([nH]c2=O)c(C)nn3-c2ccccc2)c(C)c1`, the TGI amounted to 8.94 µM.
On to `Clc1ccccc1NN(Cc1ccccn1)c1ccccc1Cl`, for which the TGI stood at 32.9 µM.
`Cn1cc(C2=C(c3cn(C)c4ccc(N)cc34)C(=O)NC2=O)c2ccccc21`: the GI50 is 4.79 µM and the TGI was determined as 16 µM.
`S=C(N/N=C/c1cc(Cl)cc(Cl)c1)NC12CC3CC(CC(C3)C1)C2`: the GI50 was 6.03 µM and the TGI is over 100 µM.
Compound `CCCCN1C(=O)CC2[C@@H]3CCc4cc(OC)ccc4C3CC[C@]2(C)C1=O` (stereo not given in full) had a TGI of over 10 µM.
For the compound `COc1cc2cc(Oc3ccc(NC(=O)c4cccc(C(F)(F)F)c4)cc3)c(C)nc2cc1OC`, the GI50 is 3.96 µM and the TGI was 45.5 µM.
With `Cc1nc(SCC(N)=O)c2sc(=S)n(-c3ccccc3)c2n1`, the TGI was over 10 µM.
As for `COc1cc(-c2oc3ccccc3c(=O)c2O)cc(OC)c1OC`, the TGI was over 100 µM.
`CSc1ccc(/C=C2\CNC/C(=C\c3ccc(SC)cc3)C2=O)cc1`: the GI50 was 47.4 µg/mL; the TGI was > 136 µM and 150 µg/mL.
In the case of `C/C(=N\O)c1ccc(Nc2cc(-n3nnc4ccccc43)nc3ccccc23)cc1`, the GI50 is 16.3 µM and the TGI came out at 43.1 µM.
As for `Clc1ccc(COC(Cn2ccnc2)c2ccc(Cl)cc2Cl)cc1` (stereo not given), the GI50 is 2.5 µM; the TGI was 6.49 µM and 23.2 µM and 25.1 µM.
Consider `CC[C@H](C)[C@H](NC(=O)c1cnccn1)C(=O)N(C)[C@H](C[C@@H](OC(C)=O)c1nc(C(=O)N[C@@H](Cc2ccccc2)C[C@H](C)C(=O)OC)cs1)C(C)C`, for which the GI50 is 0.665 µM and the TGI amounted to 1.62 µM.
`Nc1c(C(=O)Nc2ccc([As](=O)(O)O)cc2)cnc2nnnn12` displayed a TGI of over 100 µM.
Consider `CC(C)n1c(/C=C/[C@@H](O)C[C@@H](O)CC(=O)O)c(-c2ccc(F)cc2)c2ccccc21`, for which the GI50 was 12.2 µM and 15 µM; the TGI is 46.7 µM and > 100 µM.
Compound `N#CC(C#N)SCc1ccccc1` yielded a TGI of over 100 µM.
`CCOc1ccc(NCC2CC/C(=C\C=C\c3ccccc3)C2=O)cc1` (stereo not given): the TGI turned out to be 34.4 µM.
`Cc1cc(N(CCNc2ccnc3cc(Cl)ccc23)Cc2ccc3c(c2)OCO3)nc(N2CCN(C)CC2)n1`: the GI50 is 2.73 µM and the TGI turned out to be 10.9 µM.

The subject of another assay is U251 CNS. Kind of assay: DTP human tumour cell line panel, 48 h.
`Cc1ccc(C(=O)Cc2nc3c([nH]c2=O)c(C)nn3-c2ccccc2)c(C)c1` returned a TGI of over 10 µM.
Same read-out and setting: with `Clc1ccccc1NN(Cc1ccccn1)c1ccccc1Cl` the figure was 29.6 µM.
Regarding `Cn1cc(C2=C(c3cn(C)c4ccc(N)cc34)C(=O)NC2=O)c2ccccc21`, the GI50 is 8.96 µM and the TGI was over 25 µM.
As for `S=C(N/N=C/c1cc(Cl)cc(Cl)c1)NC12CC3CC(CC(C3)C1)C2`, the GI50 was 3.18 µM and the TGI was over 33.6 µM.
On to `CCCCN1C(=O)CC2[C@@H]3CCc4cc(OC)ccc4C3CC[C@]2(C)C1=O` (stereo not given in full), for which the TGI was over 10 µM.
`COc1cc2cc(Oc3ccc(NC(=O)c4cccc(C(F)(F)F)c4)cc3)c(C)nc2cc1OC`: the GI50 was 4.44 µM and the TGI is over 100 µM.
On to `Cc1nc(SCC(N)=O)c2sc(=S)n(-c3ccccc3)c2n1`, for which the TGI was over 10 µM.
`COc1cc(-c2oc3ccccc3c(=O)c2O)cc(OC)c1OC`: the TGI is over 100 µM.
Turning to `CSc1ccc(/C=C2\CNC/C(=C\c3ccc(SC)cc3)C2=O)cc1`, the GI50 was 34.8 µM and 21.7 µg/mL; the TGI was 83.7 µM and 65.4 µg/mL.
`C/C(=N\O)c1ccc(Nc2cc(-n3nnc4ccccc43)nc3ccccc23)cc1`: the GI50 is 6.68 µM and the TGI turned out to be 25.3 µM.
On to `Clc1ccc(COC(Cn2ccnc2)c2ccc(Cl)cc2Cl)cc1` (stereo not given), for which the GI50 was 2.04 µM; the TGI was 7.46 µM and 28.6 µM and 26 µM.
With `CC[C@H](C)[C@H](NC(=O)c1cnccn1)C(=O)N(C)[C@H](C[C@@H](OC(C)=O)c1nc(C(=O)N[C@@H](Cc2ccccc2)C[C@H](C)C(=O)OC)cs1)C(C)C`, the GI50 is 1.18 µM and the TGI is over 33.3 µM.
On to `Nc1c(C(=O)Nc2ccc([As](=O)(O)O)cc2)cnc2nnnn12`, for which the TGI was over 100 µM.
For `CC(C)n1c(/C=C/[C@@H](O)C[C@@H](O)CC(=O)O)c(-c2ccc(F)cc2)c2ccccc21`, the GI50 was 0.455 µM and 0.558 µM; the TGI was over 100 µM.
`N#CC(C#N)SCc1ccccc1` gave a TGI of 56.6 µM.
Consider `CCOc1ccc(NCC2CC/C(=C\C=C\c3ccccc3)C2=O)cc1` (stereo not given), for which the TGI was determined as 35.5 µM.
Regarding `Cc1cc(N(CCNc2ccnc3cc(Cl)ccc23)Cc2ccc3c(c2)OCO3)nc(N2CCN(C)CC2)n1`, the GI50 is 2.01 µM and the TGI was found to be 4.25 µM.
